From US12648924B2, “Prevention and treatment of effects of aging and age-associated disorders with ketone supplementation” (priority 2020, dated 2026)

Experiment: KDE in LPS-induced sepsis, inflammation-induced atrophy, ad libitum fed (Experiment 5b)
Type: in vivo, VM/Dk mice
Settings: single 4 mL/kg KDE gavage after 10 mg/kg LPS
Description: VM-M3 Cell and Lipopolysaccharide Implantation: For VM-M3 implantation in the model characterization experiments (FIG. 1-5; FIG. 8-12), ˜1×10^6 VM-M3 cells (T. Seyfried, Boston College) in 300 μL sterile PBS (CA-M and CA-F) or 300 μL sterile PBS-only (SH-M and SH-F) were injected subcutaneously into the left abdominal flank resulting in primary tumor formation at the injection site, and subsequently systemically metastasizes to most major organs, namely the liver, kidneys, spleen, lungs, and brain. […] This method of implantation further minimized variability in markers of tumor progression, and therefore provides a useful optional method technique in the VM-M3 model for efficient analysis of potential therapeutic agents. To determine KDE-induced effects on CACS, 1×10^6 VM-M3 cells in 300 μL sterile PBS (KDE+VM-M3 and VM-M3) or 300 μL sterile PBS-only (Sham) were administered intraperitoneally (FIG. 6; FIG. 13). For LPS administration in the septic atrophy model, LPS (Escherichia coli 055:B5; L2880; Sigma-Aldrich, St. Louis, MO) was diluted in sterile PBS and administered intraperitoneally at 10 mg/kg as pilot work indicated a maximal, yet non-fatal, ˜15% bodyweight reduction at 10 mg/kg dose.
Body Composition: Bodyweight was assessed daily at the same time (7:00-9:00 AM). At EOL, bodyweight and weights of ascites fluid, primary tumor, calf (combined gastrocnemius & soleus), anterior thigh (quadriceps), intraperitoneal fat pads, liver and spleen tissue were measured (Table 1; Experiment 1a&b). A follow-up time course experiment was conducted at weeks 1, 2, and 3 to assess weekly changes in bodyweight and aforementioned tissues for both cancer and sham-matched control animals (Experiment 2). For follow up evaluation of KDE in CACS, bodyweight was tracked daily with tissue weight determined at 21-days, prior to EOL (Experiment 4c). All tissue weights were gathered at harvest and normalized to baseline bodyweight (not influenced by cachexia progression) to allow for appropriate comparison between animals. For evaluation of KDE in LPS, bodyweight was tracked daily for evaluation pre- and post-LPS administration (Experiment 5b&c).
Food Intake and Ketone Diester Administration: Standard diet dry food (2018 Teklad Global 18% Protein Rodent Diet, Harlan) was mixed with deionized water (1 g dry food/mL deionized water) into a consistent paste and placed on a 100×15 mm dish. Food intake was tracked daily at the same time (7:00-9:00) and replaced every other day to ensure fresh food. […] As pilot work indicated potential water evaporation in food paste in ventilated cages, dehydration standard curve was calculated across various volumes of plated food (5, 10, 25.0, 50.0, 100 g/food) with and without KDE over a two-day period. […]

With `CC(=O)CC(=O)OCCC(C)OC(=O)CC(C)=O` (stereo not shown) [KDE, R/S 1,3-butanediol acetoacetate diester] the “anorexic symptoms (percentage caloric restriction)” value (1 day post LPS) was “significantly reduced”, the “attenuation of bodyweight loss” value (first 24 hours, vs LPS with water) was 47% and the “chronic LPS-induced bodyweight loss” value (followed 13 days) was “significantly attenuated”. For the same compound, the “time to recovery (return to baseline bodyweight)” value (LPS alone did not recover within 13 days) was at most 10 days.
